Laboratory results: patent US11773132B2, “Cyclic di-nucleotides as stimulator of interferon genes modulators” (Beijing Xuanyi PharmaSciences Co., Ltd., priority 2017, dated 2023)

Each molecule was assayed against T1, Human STING (Homo sapiens, UniProt Q86WV6, G230A/H232R/R293Q/R71H) (assay: THP1-Dual cell assay, IRF pathway reporter luminescence readout (QUANTI-Luc)). Conditions: THP1-Dual cells, 24 h, 30 μM, Table 2.
T1 construct: host or cells: THP1-Dual cells (human monocytic reporter line)
Assay type: cell-based
Experimental: STING pathway activation by the compounds described herein was measured using THP-1 dual cells. These cells are THP1 monocytes that have been modified to be reporters for the IRF pathway, which is activated by STING agonists in these cells.
THP1-Dual cells (obtained from Invivogen) are maintained in growth medium with 100 ug/ml of Zeocin and 10 ug/ml of blasticidin at 37° C., 5% CO2, the cells were passaged every 3 days by inoculating 7×10^5 cells per ml and centrifuged at 1000 rpm for 5 min. Supernatant was removed and THP-1 Dual cells were re-suspended at 5×10^5 cells/ml in fresh pre-warmed growth medium.
[…]. 50 ul of Cell suspension (about 2.5×10^4 cells per well) was added in 384-well plate, which was incubated for 24 hours at 37° C., 5% CO2. QUANTI-Luc was prepared and used following the manufacturer's instructions, 5×10^3 cells per well were seeded in 40 μl medium and incubated overnight. Luminometer was set with the following parameters: 50u of injection, end-point measurement with a 4 second start time and 0.1 second reading time. 10 ul of THP-1 Dual cell culture medium per well was added into a 96-well white (opaque) plate, luminescence was measured and calculated.

T1 sequence (Q86WV6 whole entry R71H/G230A/H232R/R293Q): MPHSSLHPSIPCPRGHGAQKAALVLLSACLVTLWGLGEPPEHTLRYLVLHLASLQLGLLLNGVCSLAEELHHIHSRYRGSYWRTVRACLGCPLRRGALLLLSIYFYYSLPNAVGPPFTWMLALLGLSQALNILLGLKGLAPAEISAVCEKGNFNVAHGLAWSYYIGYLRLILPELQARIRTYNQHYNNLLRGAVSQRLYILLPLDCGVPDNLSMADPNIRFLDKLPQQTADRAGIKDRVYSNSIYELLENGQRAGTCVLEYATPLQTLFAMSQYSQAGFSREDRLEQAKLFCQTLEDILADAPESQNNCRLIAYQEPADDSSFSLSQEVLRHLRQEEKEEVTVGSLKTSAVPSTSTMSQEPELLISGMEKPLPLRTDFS

With `BP1(=O)OC[C@H]2O[C@@H](n3cnc4c(NCc5ccccc5)ncnc43)[C@H](OP(=O)(S)OC[C@H]3O[C@@H](n4cnc5c(NCc6ccccc6)ncnc54)[C@H](O)[C@@H]3O1)[C@@H]2O` (single isomer, unassigned) [Compound D1] the “Readout Average” value was 22040.
In the case of `BP1(=O)OC[C@H]2O[C@@H](n3cnc4c(NCc5ccccc5)ncnc43)[C@H](OP(=O)(S)OC[C@H]3O[C@@H](n4cnc5c(NCc6ccccc6)ncnc54)[C@H](O)[C@@H]3O1)[C@@H]2O` (single isomer, unassigned) [Compound D4], the “Readout Average” value is reported as 510240.
`BP1(=O)OC[C@H]2O[C@@H](n3cnc4c(NCc5ccccc5)ncnc43)[C@H](OP(=O)(S)OC[C@H]3O[C@@H](n4cnc5c(NCc6ccccc6)ncnc54)[C@H](O)[C@@H]3O1)[C@@H]2O` (single isomer, unassigned) [Compound D2] was tested, and the “Readout Average” value was 23960.
In the case of `BP1(=O)OC[C@H]2O[C@@H](n3cnc4c(NCc5ccccc5)ncnc43)[C@H](OP(=O)(S)OC[C@H]3O[C@@H](n4cnc5c(NCc6ccccc6)ncnc54)[C@H](O)[C@@H]3O1)[C@@H]2O` (single isomer, unassigned) [Compound D3], the “Readout Average” value is reported as 273875.

In the case of `BP1(=O)OC[C@H]2O[C@@H](n3cnc4c(NCc5ccccc5)ncnc43)[C@H](OP(=O)(S)OC[C@H]3O[C@@H](n4cnc5c(NCc6ccccc6)ncnc54)[C@H](O)[C@@H]3O1)[C@@H]2O` (single isomer, unassigned) [Compound D1], the “Readout n = 1” value is reported as 22420.
With `BP1(=O)OC[C@H]2O[C@@H](n3cnc4c(NCc5ccccc5)ncnc43)[C@H](OP(=O)(S)OC[C@H]3O[C@@H](n4cnc5c(NCc6ccccc6)ncnc54)[C@H](O)[C@@H]3O1)[C@@H]2O` (single isomer, unassigned) [Compound D4] the “Readout n = 1” value was 534040.
In the case of `BP1(=O)OC[C@H]2O[C@@H](n3cnc4c(NCc5ccccc5)ncnc43)[C@H](OP(=O)(S)OC[C@H]3O[C@@H](n4cnc5c(NCc6ccccc6)ncnc54)[C@H](O)[C@@H]3O1)[C@@H]2O` (single isomer, unassigned) [Compound D2], the “Readout n = 1” value is reported as 18350.
For `BP1(=O)OC[C@H]2O[C@@H](n3cnc4c(NCc5ccccc5)ncnc43)[C@H](OP(=O)(S)OC[C@H]3O[C@@H](n4cnc5c(NCc6ccccc6)ncnc54)[C@H](O)[C@@H]3O1)[C@@H]2O` (single isomer, unassigned) [Compound D3], the “Readout n = 1” value was 289010.

With `BP1(=O)OC[C@H]2O[C@@H](n3cnc4c(NCc5ccccc5)ncnc43)[C@H](OP(=O)(S)OC[C@H]3O[C@@H](n4cnc5c(NCc6ccccc6)ncnc54)[C@H](O)[C@@H]3O1)[C@@H]2O` (single isomer, unassigned) [Compound D1] the “Readout n = 2” value was 21660.
With `BP1(=O)OC[C@H]2O[C@@H](n3cnc4c(NCc5ccccc5)ncnc43)[C@H](OP(=O)(S)OC[C@H]3O[C@@H](n4cnc5c(NCc6ccccc6)ncnc54)[C@H](O)[C@@H]3O1)[C@@H]2O` (single isomer, unassigned) [Compound D4] the “Readout n = 2” value was 486440.
In the case of `BP1(=O)OC[C@H]2O[C@@H](n3cnc4c(NCc5ccccc5)ncnc43)[C@H](OP(=O)(S)OC[C@H]3O[C@@H](n4cnc5c(NCc6ccccc6)ncnc54)[C@H](O)[C@@H]3O1)[C@@H]2O` (single isomer, unassigned) [Compound D2], the “Readout n = 2” value is reported as 29570.
`BP1(=O)OC[C@H]2O[C@@H](n3cnc4c(NCc5ccccc5)ncnc43)[C@H](OP(=O)(S)OC[C@H]3O[C@@H](n4cnc5c(NCc6ccccc6)ncnc54)[C@H](O)[C@@H]3O1)[C@@H]2O` (single isomer, unassigned) [Compound D3] was tested, and the “Readout n = 2” value was 258740.
